Activity calls are given as the source filed them. No cut-off for these calls is given here.
Key:
[1] = target: T1, Muscarinic acetylcholine receptor M1 (Homo sapiens) (UniProt P11229); experiment: (§1) Partial agonist activity at N-terminal FLAG tagged/C-terminal NanoLuc tagged human muscarinic M1 receptor expressed in HEK293T cells using furimazine as substrate assessed as receptor activation at 100 uM preincubated with substrate for 1 min followed by compound addition and measured for 6 mins 27 sec by NanoBRET assay; format: cell-based; conditions: time 387.0 sec
T1 sequence (whole entry): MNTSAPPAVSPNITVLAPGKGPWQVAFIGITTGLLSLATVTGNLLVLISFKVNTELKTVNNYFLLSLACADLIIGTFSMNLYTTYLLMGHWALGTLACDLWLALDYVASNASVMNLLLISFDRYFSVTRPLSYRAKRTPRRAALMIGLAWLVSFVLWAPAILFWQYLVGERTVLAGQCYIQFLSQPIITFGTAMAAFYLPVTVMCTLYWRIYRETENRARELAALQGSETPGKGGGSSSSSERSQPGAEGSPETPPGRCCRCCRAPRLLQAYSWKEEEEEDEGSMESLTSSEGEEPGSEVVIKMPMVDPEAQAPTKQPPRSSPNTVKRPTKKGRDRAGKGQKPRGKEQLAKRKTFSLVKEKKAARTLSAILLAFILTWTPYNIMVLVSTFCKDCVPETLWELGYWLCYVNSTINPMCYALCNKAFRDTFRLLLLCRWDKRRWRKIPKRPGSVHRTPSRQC

[2] = target: T2, Muscarinic acetylcholine receptor M4 (Homo sapiens, UniProt P08173)
T2 sequence (P08173 whole entry): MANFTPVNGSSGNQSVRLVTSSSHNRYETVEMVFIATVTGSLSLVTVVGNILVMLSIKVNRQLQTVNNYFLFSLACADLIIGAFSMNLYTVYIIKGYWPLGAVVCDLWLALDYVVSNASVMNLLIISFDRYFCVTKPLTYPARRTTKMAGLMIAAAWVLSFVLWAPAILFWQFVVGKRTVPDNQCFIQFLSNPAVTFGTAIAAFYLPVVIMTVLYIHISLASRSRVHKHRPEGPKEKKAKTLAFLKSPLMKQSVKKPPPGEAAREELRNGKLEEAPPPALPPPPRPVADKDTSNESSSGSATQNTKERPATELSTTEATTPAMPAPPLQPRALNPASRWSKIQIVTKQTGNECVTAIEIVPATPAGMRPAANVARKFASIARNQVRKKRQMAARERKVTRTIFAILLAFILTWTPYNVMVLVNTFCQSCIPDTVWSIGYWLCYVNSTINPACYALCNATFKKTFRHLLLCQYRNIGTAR
Description: Partial agonist activity at N-terminal FLAG tagged/C-terminal NanoLuc tagged human muscarinic M4 receptor expressed in HEK293T cells using furimazine as substrate assessed as receptor activation preincubated with substrate for 1 min followed by compound addition and measured for 6 mins 27 sec by NanoBRET assay

[3] = target: T3, Muscarinic acetylcholine receptor M3 (Homo sapiens, UniProt P20309); experiment: Partial agonist activity at C-terminal NanoLuc tagged human muscarinic M3 receptor expressed in HEK293T cells using furimazine as substrate assessed as receptor activation at 100 uM preincubated with substrate for 1 min followed by compound addition and measured for 6 mins 27 sec by NanoBRET assay; format: cell-based; conditions: time 387.0 sec
Target sequence in this assay (P20309 whole entry, looked up): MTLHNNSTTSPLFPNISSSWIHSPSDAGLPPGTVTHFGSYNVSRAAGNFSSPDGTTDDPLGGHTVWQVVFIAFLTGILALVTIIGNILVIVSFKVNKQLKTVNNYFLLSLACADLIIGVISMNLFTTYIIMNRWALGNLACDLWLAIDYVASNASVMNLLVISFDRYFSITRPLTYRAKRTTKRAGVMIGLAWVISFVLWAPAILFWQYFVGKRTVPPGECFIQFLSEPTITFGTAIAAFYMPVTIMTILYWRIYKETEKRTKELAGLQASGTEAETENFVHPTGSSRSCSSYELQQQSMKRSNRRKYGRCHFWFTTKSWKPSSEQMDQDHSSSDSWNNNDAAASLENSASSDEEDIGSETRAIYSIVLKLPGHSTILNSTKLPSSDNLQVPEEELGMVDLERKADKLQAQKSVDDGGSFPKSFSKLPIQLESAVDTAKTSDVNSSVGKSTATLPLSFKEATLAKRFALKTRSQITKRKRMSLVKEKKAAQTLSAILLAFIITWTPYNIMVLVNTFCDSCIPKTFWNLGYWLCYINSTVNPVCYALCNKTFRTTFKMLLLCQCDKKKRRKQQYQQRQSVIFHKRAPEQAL

[4] = target: T4, Muscarinic acetylcholine receptor M5 (Homo sapiens) (UniProt P08912); experiment: as §1, with “M5” for “M1”; format: cell-based; conditions: time 387.0 sec
T4 sequence (whole entry): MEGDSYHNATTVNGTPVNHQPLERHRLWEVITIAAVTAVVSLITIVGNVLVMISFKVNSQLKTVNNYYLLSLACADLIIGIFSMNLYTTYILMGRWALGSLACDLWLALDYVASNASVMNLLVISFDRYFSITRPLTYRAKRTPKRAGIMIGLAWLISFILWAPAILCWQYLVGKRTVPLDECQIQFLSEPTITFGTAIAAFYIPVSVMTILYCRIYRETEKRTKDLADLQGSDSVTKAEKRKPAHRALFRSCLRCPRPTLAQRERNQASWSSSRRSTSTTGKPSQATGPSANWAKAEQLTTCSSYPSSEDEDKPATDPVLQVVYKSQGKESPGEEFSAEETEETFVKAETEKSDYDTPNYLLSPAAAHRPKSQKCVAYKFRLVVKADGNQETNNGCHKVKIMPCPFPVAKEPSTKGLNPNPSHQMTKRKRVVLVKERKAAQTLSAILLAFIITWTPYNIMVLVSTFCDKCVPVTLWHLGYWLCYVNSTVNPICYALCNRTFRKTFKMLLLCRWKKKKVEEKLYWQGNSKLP

[5] = target: T5, Muscarinic acetylcholine receptor M1 (Homo sapiens, UniProt P11229)
T5 sequence (P11229 whole entry): T1 sequence (whole entry)
Description: Partial agonist activity at N-terminal FLAG tagged/C-terminal NanoLuc tagged human muscarinic M1 receptor expressed in HEK293T cells using furimazine as substrate assessed as receptor activation preincubated with substrate for 1 min followed by compound addition and measured for 6 mins 27 sec by NanoBRET assay

[6] = target: T6, Muscarinic acetylcholine receptor M2 (Homo sapiens, UniProt P08172)
T6 sequence (P08172 whole entry): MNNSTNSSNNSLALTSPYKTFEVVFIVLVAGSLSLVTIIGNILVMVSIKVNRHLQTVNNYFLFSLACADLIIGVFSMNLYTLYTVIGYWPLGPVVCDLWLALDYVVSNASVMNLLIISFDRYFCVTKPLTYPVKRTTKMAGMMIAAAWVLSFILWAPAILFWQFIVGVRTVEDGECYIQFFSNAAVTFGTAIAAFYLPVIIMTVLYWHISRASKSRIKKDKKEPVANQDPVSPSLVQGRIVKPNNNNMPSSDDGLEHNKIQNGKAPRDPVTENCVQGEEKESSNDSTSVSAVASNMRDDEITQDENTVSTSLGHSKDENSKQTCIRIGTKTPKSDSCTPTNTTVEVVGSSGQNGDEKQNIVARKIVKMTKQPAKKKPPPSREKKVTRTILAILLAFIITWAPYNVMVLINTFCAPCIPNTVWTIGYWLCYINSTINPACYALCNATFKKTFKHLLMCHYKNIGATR
Description: Partial agonist activity at C-terminal NanoLuc tagged human muscarinic M2 receptor expressed in HEK293T cells using furimazine as substrate assessed as receptor activation preincubated with substrate for 1 min followed by compound addition and measured for 6 mins 27 sec by NanoBRET assay

[7] = target: T7, Muscarinic acetylcholine receptor M5 (Homo sapiens, UniProt P08912)
T7 sequence (P08912 whole entry): T4 sequence (whole entry)
Description: Partial agonist activity at N-terminal FLAG tagged/C-terminal NanoLuc tagged human muscarinic M5 receptor expressed in HEK293T cells using furimazine as substrate assessed as receptor activation preincubated with substrate for 1 min followed by compound addition and measured for 6 mins 27 sec by NanoBRET assay

[8] = target: T8, Muscarinic acetylcholine receptor M4 (Homo sapiens) (UniProt P08173); experiment: as §1, with “M4” for “M1”; format: cell-based; conditions: time 387.0 sec
T8 sequence (whole entry): T2 sequence (P08173 whole entry)

[9] = target: T3, Muscarinic acetylcholine receptor M3
Target sequence in this assay (P20309 whole entry): as the sequence (P20309 whole entry, looked up) above
Description: Partial agonist activity at C-terminal NanoLuc tagged human muscarinic M3 receptor expressed in HEK293T cells using furimazine as substrate assessed as receptor activation preincubated with substrate for 1 min followed by compound addition and measured for 6 mins 27 sec by NanoBRET assay

SMILES	Activity [1]	EC50 [2]	Activity [3]	Activity [4]	EC50 [5]	EC50 [6]	EC50 [7]	Activity [8]	EC50 [9]
Cn1c[n+](CCCCCC[N+](C)(C)CC(C)(C)CN2C(=O)c3cccc4cccc(c34)C2=O)cc1CC1COC(=O)C1 (configuration not stated)	inactive	36.3 µM	inactive	inactive					
CC(C)(CN1C(=O)c2cccc3cccc(c23)C1=O)C[N+](C)(C)CCCCCC[n+]1c[nH]c(CC2COC(=O)C2)c1 (configuration not stated)		2.63 µM	inactive	inactive	0.251 µM	0.251 µM			
Cn1cncc1C[C@H]1COC(=O)C1 [PILOSININE]	inactive		inactive				26.3 µM	inactive	
CC[C@@H]1C(=O)OC[C@@H]1Cc1c[n+](CCCCCCCC[N+](C)(C)CC(C)(C)CN2C(=O)c3cccc4cccc(c34)C2=O)cn1C	inactive	0.0955 µM	inactive	inactive					
CC[C@@H]1C(=O)OC[C@@H]1Cc1c[n+](CCCCCC[N+](C)(C)CC(C)(C)CN2C(=O)c3cccc4cccc(c34)C2=O)cn1C					34.7 µM	1.07 µM			16.2 µM
CC[C@H]1C(=O)OC[C@@H]1Cc1c[n+](CCCCCCCC[N+](C)(C)CC(C)(C)CN2C(=O)c3cccc4cccc(c34)C2=O)cn1C	inactive			inactive				inactive	31.6 µM
CC[C@H]1C(=O)OC[C@@H]1Cc1c[n+](CCCCCC[N+](C)(C)CC(C)(C)CN2C(=O)c3cccc4cccc(c34)C2=O)cn1C					1.74 µM	0.537 µM			2.82 µM
O=C1C[C@@H](Cc2cnc[nH]2)CO1		7.41 µM			6.17 µM	1.38 µM	14.8 µM		20.9 µM

— ChEMBL document CHEMBL5257088 (J Nat Prod, 2023)
